Measurements reported in patent US8609835B2, “Polysaccharide composition and methods of isolation of the emulsion stabilizing cationic polyelectrolytic polysaccharide” (Trustees Of Tufts College, priority 2008, dated 2013).

Experiment: Aqueous solubility (statements)

Acinetobacter polyelectrolyte exopolysaccharide [APE]
solubility in aqueous solutions versus pH: soluble throughout the pH range
